One may read the solubility as how much of the substance goes into solution per volume.

Here are results for six compounds from patent US8586599B2, “Polymorphic forms of 6-(1-methyl-1H-pyrazol-4-yl)-2-{3-[5-(2-morpholin-4-yl-ethoxy)-pyrimidin-2-yl]-benzyl}-2H-pyridazin-3-one dihydrogenphosphate and processes of manufacturing thereof” (Merck Patent GmbH, priority 2008, dated 2013).

Molecules are shown by their SMILES. In brackets after ≈: the same amount, converted by molar mass.

A short description of series [1]: Water Vapour Sorption Isotherm (25° C.). The following applies: for Relative humidity range with small water uptake levels upon adsorption / Water uptake levels at elevated relative humidity (hydrate formation) / Relative humidity above which pronounced water uptake levels are observed / Relative humidity above which re-conversion to the hydrate form occurs upon adsorption / Relative humidity below which hydrate water is lost: 25° C.; for Relative humidity below which hydrate water is lost: desorption. Type of series: physicochemical. The source says: The crystalline modifications of the present invention can be characterized according to standard methods which can be found e.g. in Rolf Hilfiker, ‘Polymorphism in the Pharmaceutical Industry’, Wiley-VCH, Weinheim 2006, and references therein, e.g. X-Ray diffraction (XRD; chapter 6), IR and Raman spectroscopy (chapter 5), Differential Scanning Calorimetry (DSC) and Thermogravimetric Analysis (TGA) (chapter 3), Water Vapour Sorption Studies (chapter 9), or which can be found e.g. in H. G. Brittain (editor), Polymorphism in Pharmaceutical Solids, Vol. 95, Marcel Dekker Inc., New York 1999 (chapter 6: all there mentioned techniques).
Pronounced water uptake levels are observed above 70% RH (crystalline modification A type a) and above 90% RH (crystalline modification A type b), respectively, which results in formation of dihydrate crystalline modification H1 (water uptake levels of approx. 6 wt %) at elevated relative humidity (RH).
Pronounced water uptake levels are observed above 70% RH, which results in formation of crystalline hydrate modification NF5 (water uptake levels of approx. 5-6 wt %) at elevated relative humidity (RH).

The nature of series [2]: Kinetic solubility determination in water:acetone 30:70 (v:v) after 2 hours (Example 14).
Protocol: (§2) The dispersion was agitated at RT for 2 hours at 450 rpm. After filtration of the dispersion after 2 hours, the filtrate is analysed by HPLC (dilution may be necessary before analysis).
A further series in a line: physchem. The following applies: organic solvent or mixture, thermodynamic from solid.
Series [3] can be described thus: Solubility determination in water (Example 9). The conditions noted are these: for solubility at 1 h / solubility at 2 h: thermodynamic from solid, water, ambient temperature, maximal possible concentration 10 mg/mL; for pH value: solubility sample in water. In kind it is physicochemical. How it is done:
The mixture is stirred at 1000 rpm on a magnetic stirring plate at ambient temperature. At the sampling point 100 μL of the respective solution/suspension are transferred to a 500 μL Eppendorff cap and are centrifuged for 5 min at 14000 rpm.

Series [4] is described as follows: Competitive slurry conversion of crystalline modifications A1 and NF5 in water (Example 11). Type of series: physicochemical. The following applies: aqueous slurrying at 25° C., in words. As to the method: (§1) A PTFE-coated stirring rod was inserted into the dispersion prior to sealing the vial. The dispersion was agitated in closed vial for 12 days, using a magnetic stirrer, at 25° C. The solid-state residue was filtered, and analyzed by XRD to monitor morphic form after solvent slurrying.

Series [5] in a line: Competitive slurry conversion of crystalline modifications H1 and NF5 in water (Example 12). Type of series: physicochemical. The following applies: aqueous slurrying at 25° C., in words. As to the method:
as §1

The nature of series [6]: Competitive slurry conversion of crystalline modifications H1 and NF3 in water (Example 13). The conditions noted are these: aqueous slurrying at 25° C., in words. In kind it is physicochemical. How it is done:
A PTFE-coated stirring rod was inserted into the dispersion prior to sealing the vial. The dispersion was agitated in closed vial for 5 days, using a magnetic stirrer, at 25° C. The solid-state residue was filtered, and analyzed by XRD to monitor morphic form after solvent slurrying.

The nature of series [7]: Stability in aqueous solution, salt compared to free base. Type of series: physicochemical. The following applies: in words, no data shown.
Series [8] can be described thus: Competitive slurry conversion of crystalline modifications A1 and NF3 in organic solvents (Example 10). Type of series: physicochemical. The following applies: 25° C. and 50° C., in words. How it is done:
PTFE-coated stirring rods were inserted into the dispersions prior to sealing the vials. Dispersions were agitated in closed vials for 5 days, using a magnetic stirrer, at 25° C. and 50° C., respectively. Solid-state residues were filtered, and analyzed by XRD to monitor morphic form after solvent slurrying.

Protocol for physchem: as §2

For `Cn1cc(-c2ccc(=O)n(Cc3cccc(-c4ncc(OCCN5CCOCC5)cn4)c3)n2)cn1.O=P(O)(O)O` [crystalline modification NF3, 6-(1-methyl-1H-pyrazol-4-yl)-2-{3-[5-(2-morpholin-4-yl-ethoxy)-pyrimidin-2-yl]-benzyl}-2H-pyridazin-3-one dihydrogenphosphate], the “Relative humidity range with small water uptake levels upon adsorption” value in series [1] is listed as 0-70 % relative humidity (RH). In addition, in series [1] (listed as NF3), the “Water uptake levels at elevated relative humidity (hydrate formation)” value is 5-6 wt %. The “Relative humidity above which pronounced water uptake levels are observed” value in [1] (results in formation of hydrate NF5) is “above 70 % RH”. In addition, the “Solubility level after 2 hours compared to form A1” value in series [2] (water:acetone (30:70, v:v), in words) is “lower solubility level”. Besides, in the series “physchem”, the solubility at 2 h is 10.6 mg/mL.
Regarding `Cn1cc(-c2ccc(=O)n(Cc3cccc(-c4ncc(OCCN5CCOCC5)cn4)c3)n2)cn1` [free base, 6-(1-methyl-1H-pyrazol-4-yl)-2-{3-[5-(2-morpholin-4-yl-ethoxy)-pyrimidin-2-yl]-benzyl}-2H-pyridazin-3-one], the solubility at 1 h in series [3] (sample point 1 h) was determined as 167 µg/mL (≈ 353 µM). The compound further had a solubility at 2 h in series [3] (sample point 2 h) of 156 µg/mL (≈ 329 µM).
For `Cn1cc(-c2ccc(=O)n(Cc3cccc(-c4ncc(OCCN5CCOCC5)cn4)c3)n2)cn1.O.O=P(O)(O)O` [crystalline modification NF5, 6-(1-methyl-1H-pyrazol-4-yl)-2-{3-[5-(2-morpholin-4-yl-ethoxy)-pyrimidin-2-yl]-benzyl}-2H-pyridazin-3-one dihydrogenphosphate hydrate], in series [1], the “Relative humidity above which re-conversion to the hydrate form occurs upon adsorption” value is recorded as over 70 % RH and the “Relative humidity below which hydrate water is lost” value is < 40 % relative humidity (RH). Also, the “Relative stability of forms A1 and NF5” value in [4] is “more stable form in an aqueous dispersion system”.
Consider `Cn1cc(-c2ccc(=O)n(Cc3cccc(-c4ncc(OCCN5CCOCC5)cn4)c3)n2)cn1.O.O.O=P(O)(O)O` [crystalline modification H1, 6-(1-methyl-1H-pyrazol-4-yl)-2-{3-[5-(2-morpholin-4-yl-ethoxy)-pyrimidin-2-yl]-benzyl}-2H-pyridazin-3-one dihydrogenphosphate dihydrate], for which the “Relative stability of forms H1 and NF5” value in [5] is reported as “stable form in an aqueous dispersion system”. Further, in series [1], the “Relative humidity above which re-conversion to the hydrate form occurs upon adsorption” value is reported as over 70 % RH and the “Relative humidity below which hydrate water is lost” value is recorded as < 40 % relative humidity (RH). In [6], the “Relative stability of forms H1 and NF3” value is “more stable form in an aqueous dispersion system”.
`Cn1cc(-c2ccc(=O)n(Cc3cccc(-c4ncc(OCCN5CCOCC5)cn4)c3)n2)cn1.O=P(O)(O)O` [dihydrogenphosphate, 6-(1-methyl-1H-pyrazol-4-yl)-2-{3-[5-(2-morpholin-4-yl-ethoxy)-pyrimidin-2-yl]-benzyl}-2H-pyridazin-3-one dihydrogenphosphate]: in series [7], the “Stability in aqueous solution compared to free base” value is given as “significantly superior stability in aqueous solution”. The “Solubility in aqueous solutions compared to free base” value in series [3] (in words) is recorded as “significantly higher solubility”. In series [3] (sample point 1 h), the pH value is on record as 3.91 and the solubility at 1 h was found to be 9860 µg/mL. In series [3] (sample point 2 h), this compound came in with a pH value of 3.97 and a solubility at 2 h of over 10000 µg/mL.
Consider `Cn1cc(-c2ccc(=O)n(Cc3cccc(-c4ncc(OCCN5CCOCC5)cn4)c3)n2)cn1.O=P(O)(O)O` [crystalline modification A1, 6-(1-methyl-1H-pyrazol-4-yl)-2-{3-[5-(2-morpholin-4-yl-ethoxy)-pyrimidin-2-yl]-benzyl}-2H-pyridazin-3-one dihydrogenphosphate anhydrate], for which the “Relative humidity range with small water uptake levels upon adsorption” value is given as 0-70 % relative humidity (RH) in [1] (type a) and 0-90 % RH in [1] (type b). Further, the “Relative humidity above which pronounced water uptake levels are observed” value in series [1] (type a, results in formation of dihydrate H1) is recorded as “above 70 % RH”; in series [1] (type b, results in formation of dihydrate H1) it was “above 90 % RH”. The “Water uptake levels at elevated relative humidity (hydrate formation)” value in series [1] (listed as A1) was “approx. 6 wt %”. Further, the “Physical stable form in the humidity range 0% up to (upper limit)” value in series [1] (varying relative humidity conditions) is reported as “at least 70 % RH”. In addition, the “Solubility water:acetone (30:70, v:v) after 2 h” value in [2] (kinetic solubility, RT, 2 hours, 450 rpm) was determined as 18.2 mg/mL. Besides, the “Relative stability of forms A1 and NF3” value in [8] is “more stable form”.
